“Also recorded” adds a separate entry of the source.
Tests used:
Assay type in all cases: biochemical
[1] = target: T1, CTX-M-15 (Escherichia coli, UniProt Q9EXV5); assay: IC50 enzyme inhibition assay, nitrocefin reporter substrate
T1 construct: All β-lactamase overexpression constructs were generated without the leader peptide in a pET-28b plasmid containing a N-terminal His Tag; His tag (N); made in house; host or cells: E. coli BL21(DE3)
Protocol: (§1) Enzyme (NDM-1, 5 nM; VIM-2, 500 pM; CTX-M-15, 500 pM; KPC-2, 5 nM; OXA-48, 1 nM; TEM-1, 100 pM; ACE, 50 nM) was mixed with 30 μM nitrocefin (100 μM nitrocefin for TEM-1; 250 µM furanacryloyl-L-phenylalanylglycylglycine [FAPGG] for ACE^24) after a 5-10 minute preincubation with AM-A. Metallo-enzymes were supplemented with 10 μM ZnSO4. Assays were read in 96-well microplate format at 490 nm using a Spectramax reader (Molecular Devices) at 30-37° C.
(§2) E. coli strain BW25113 was modified by deletion of the bamB and tolC genes so as to increase permeability to and reduce efflux of small molecules. This strain was then further modified by the single-copy chromosomal insertion of the blaNDM-1 gene under control of the pLac promoter. Microbial natural product extracts were screened against this strain in the presence of sublethal ¼ MIC meropenem. AM-A was purified from a hit extract and its structure elucidated by NMR, mass spectrometry and polarimetry. IC50 values for AM-A were determined using nitrocefin (for MBLs and Ser BLs) and furanacryloyl-L-phenylalanylglycylglycine (for ACE)^21 as reporter substrates against the following purified enzymes: MBLs IMP-7, VIM-2, and NDM-1; SBLs CTX-M-15, KPC-2, OXA-48, and TEM-1; as well as ACE from rabbit lung. IC50, reversibility, Zn^2+ restoration, and inactivation enzyme assays were performed in 50 mM HEPES pH 7.5 and measured using a SpectraMax reader (Molecular Devices). ICP-MS experiments were conducted using purified NDM-1 at 5 mg/mL and varying concentrations of AM-A with subsequent dilution and transfer by nebulization into a NexION 3000 ICP mass spectrometer (Perkin Elmer). FIC values were determined using standard methods^27. Various concentrations of AM-A were tested in combination with 2 mg/L meropenem against 200+MBL-expressing clinical isolates including Pseudomonas spp., Acinetobacter spp., and Enterobacteriaceae. A dose of 2×10^6 forming units (cfu) of Klebsiella pneumoniae N11-2218 was used for all organ bacterial load experiments and a dose of 5×10^7cfu for all survival experiments. For all experiments, mice were treated with compound 30 minutes post infection.

[2] = system: IMP-7; assay: as above
Protocol: as §1, §2

[3] = target: T2, KPC-2 (Klebsiella pneumoniae, UniProt Q9F663); assay: as above
T2 construct: All β-lactamase overexpression constructs were generated without the leader peptide in a pET-28b plasmid containing a N-terminal His Tag; His tag (N); made in house
Protocol: as §1, §2

[4] = target: T3, OXA-48 (Klebsiella pneumoniae, UniProt Q6XEC0); assay: as above
T3 construct: All β-lactamase overexpression constructs were generated without the leader peptide in a pET-28b plasmid containing a N-terminal His Tag; His tag (N); made in house; host or cells: E. coli BL21(DE3)
Protocol: as §1, §2

[5] = target: T4, TEM-1 (Escherichia coli, UniProt P62593); assay: as above
T4 construct: All β-lactamase overexpression constructs were generated without the leader peptide in a pET-28b plasmid containing a N-terminal His Tag; His tag (N); made in house; host or cells: E. coli BL21(DE3)
Protocol: as §1, §2

[6] = target: T5, VIM-2 (Escherichia coli, UniProt Q5U7L7); assay: as above
T5 construct: All β-lactamase overexpression constructs were generated without the leader peptide in a pET-28b plasmid containing a N-terminal His Tag; His tag (N); made in house; host or cells: E. coli BL21(DE3)
Protocol: as §1, §2

[7] = target: T5, VIM-2; assay: Inactivation kinetics
Protocol: NDM-1 (50 nM) was added to 20 μM nitrocefin containing AM-A in serial ½ dilutions from 8 μM. The assay was performed in 50 mM HEPES pH 7.5, 200 μL final volume. The assay was read in 96-well microplate format at 490 nm using a Spectramax reader (Molecular Devices) for 10 minutes at 37° C. VIM-2 (10 nM) was added to 20 μM nitrocefin containing AM-A in serial ½ dilutions from 16 μM. The assay was performed in 50 mM HEPES pH 7.5, 200 μL final volume. The assay was read in 96-well microplate format at 490 nm using a Spectramax reader (Molecular Devices) for 10 minutes at 37° C. as reported previously. For all assays experiments the offset between reaction initiation and the first read was ˜6s.
Rate constants characterizing the inactivation of enzyme were calculated based on the dependence of the pseudo-first order rate constant, ki, upon AM-A concentration according to the following model:
[formula] where E•Zn, A, E•Zn•A, and Zn•A are the active metalloenzyme, AM-A, the ternary metalloenzyme-AM-A complex, and AM-A-metal complex, respectively. Ki represents the dissociation constant of the ternary complex and k+2 is the rate constant for dissociation of ternary complex into inactivated enzyme (Einact) and AM-A-Zn complex. […]
[formula] […] The individual values of Ki and k+2 were determined by fitting the value of ki to equation 2 as described previously^25: […]

[8] = target: NDM-1 (Klebsiella pneumoniae, UniProt C7C422); assay: Zn2+ restoration assay; design: All β-lactamase overexpression constructs were generated without the leader peptide in a pET-28b plasmid containing a N-terminal His Tag; His tag (N, cleaved yes); SUMO (implied by the use of SUMO protease) (N, cleaved yes); made in house; host or cells: E. coli BL21(DE3); conditions: post-inactivation by AM-A
Protocol: NDM-1 (5 nM) supplemented with […] ZnSO4 was incubated with 20 μM AM-A for 15 minutes at 30° C. Nitrocefin (30 μM) and ZnSO4 from 500 nM-40 μM were added to a final volume of 100 μL and absorbance at 490 nm was monitored using a Spectramax reader (Molecular Devices) for 30 minutes at 30° C. Percent residual activity was calculated from no AM-A control. Slightly negative percent residual activity was reported as 0.

T3 sequence (Q6XEC0 23-265 limits assumed): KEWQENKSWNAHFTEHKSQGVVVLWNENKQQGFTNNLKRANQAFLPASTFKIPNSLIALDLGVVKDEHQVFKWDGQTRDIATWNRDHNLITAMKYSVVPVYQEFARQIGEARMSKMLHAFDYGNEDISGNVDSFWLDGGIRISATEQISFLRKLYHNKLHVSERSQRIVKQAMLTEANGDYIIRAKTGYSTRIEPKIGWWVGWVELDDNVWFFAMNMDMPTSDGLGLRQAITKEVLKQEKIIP
NDM-1, sequence (C7C422 29-270 limits assumed): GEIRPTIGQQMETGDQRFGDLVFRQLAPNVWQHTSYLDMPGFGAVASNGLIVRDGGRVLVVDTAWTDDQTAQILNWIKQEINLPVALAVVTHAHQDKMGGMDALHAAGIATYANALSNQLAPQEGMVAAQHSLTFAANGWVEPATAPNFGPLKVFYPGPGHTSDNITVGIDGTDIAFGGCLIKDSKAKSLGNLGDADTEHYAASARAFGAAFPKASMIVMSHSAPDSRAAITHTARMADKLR
T4 sequence (P62593 24-286 limits assumed): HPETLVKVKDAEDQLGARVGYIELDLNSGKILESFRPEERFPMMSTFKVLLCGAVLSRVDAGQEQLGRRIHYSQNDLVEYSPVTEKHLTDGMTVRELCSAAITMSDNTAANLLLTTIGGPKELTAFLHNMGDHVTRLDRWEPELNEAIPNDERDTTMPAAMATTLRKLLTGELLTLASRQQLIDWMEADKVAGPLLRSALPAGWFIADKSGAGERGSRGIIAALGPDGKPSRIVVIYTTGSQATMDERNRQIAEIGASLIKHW
T1 sequence (Q9EXV5 entry or part of it): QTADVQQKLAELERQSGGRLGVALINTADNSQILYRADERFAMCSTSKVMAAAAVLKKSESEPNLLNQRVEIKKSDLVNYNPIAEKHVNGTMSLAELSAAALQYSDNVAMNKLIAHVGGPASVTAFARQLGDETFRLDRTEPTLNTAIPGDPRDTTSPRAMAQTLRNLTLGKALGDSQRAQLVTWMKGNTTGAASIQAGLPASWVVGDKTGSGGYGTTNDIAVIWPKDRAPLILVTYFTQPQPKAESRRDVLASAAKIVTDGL
T2 sequence (Q9F663 25-293 limits assumed): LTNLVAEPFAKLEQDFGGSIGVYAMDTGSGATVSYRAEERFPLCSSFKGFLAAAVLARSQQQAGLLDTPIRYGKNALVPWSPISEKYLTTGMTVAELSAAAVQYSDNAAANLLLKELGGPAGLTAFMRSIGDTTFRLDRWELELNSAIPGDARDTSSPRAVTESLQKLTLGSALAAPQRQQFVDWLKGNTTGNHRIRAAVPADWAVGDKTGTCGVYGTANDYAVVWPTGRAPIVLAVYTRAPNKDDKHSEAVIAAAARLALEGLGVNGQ

N[C@H](CN[C@H](CN[C@@H](CC(=O)O)C(=O)O)C(=O)O)C(=O)O [AM-A, aspergillomarasmine A]
effect on CTX-M-15 [1]: no effect
activity against IMP-7 [2]: weaker activity; also recorded: less potent inactivation
effect on KPC-2 [3]: no effect
effect on activity of OXA-48 [4]: no effect; also recorded: unaffected
effect on TEM-1 [5]: no effect
IC50 [6]: 9.6 ± 2.4 µM
in vitro inhibition of VIM-2 [6]: potent in vitro dose-dependent inhibition
Ki [7]: 0.007 µM
k+2 (inactivation rate constant) ([7]; time-dependent inactivation): 0.0065 s⁻¹
NDM-1 activity after addition of excess ZnSO4 [8]: enzymatic activity could be restored; also recorded: restores activity

From patent publication US10016383B2, “Inhibitors of metallo-β-lactamase-enzymes” (McMaster University, priority 2013, dated 2018)
